In paper PMC12115180 (Pharmaceuticals, 2025):
Where two headings read alike, the source gives them in different places.

Tests used:
[1] = system: mouse laser-induced CNV model; test: Mouse laser-induced CNV model
[2] = parameters: method as in WO 2023/234423 A1; details: mouse, SC; ref WO 2023/234423 A1; cited from earlier work
[3] = system: patients with Central Serous Chorioretinopathy (CSC); details: cited from earlier work
[4] = Non-GLP tox studies in rabbits, topical application; type: in vivo; details: twice daily topical application of 1% rifampicin, 3-month dosing (Unpublished data)
[5] = system: HUVEC; details: in vitro; cited from earlier work
[6] = parameters: method as in PMID 17995946; details: typical six-month course for tuberculosis; cited from earlier work
[7] = Retinal delivery of rifampicin in rat after topical 0.25% eye drops; type: in vivo, Sprague-Dawley rats
Procedure: A single drop contained 5 μL of the above-described formulation, and the application of each drug drop was carried out at intervals of 30 min. After the eye drop application, euthanasia was performed using CO2 gas, and the retina was excised from each rat under a dissection microscope. In addition, “non-treated” negative controls were used, and the retina was excised from two rats without performing any treatments on the rats. The retina was placed in a 1.5 mL microcentrifuge tube (1 retina/tube) and was fully washed with DPBS. After completion of the washing procedures, the retinal tissues in the microcentrifuge tube were frozen in dry ice and then preserved for quantification by LC/MS analysis.

[8] = Human peak plasma exposure (package insert); type: in vivo; details: 600 mg intravenous dose, calculated from package insert values
[9] = system: oxygen-induced retinopathy rat models; test: Oxygen-induced retinopathy rat model, capillary count in histology sections; type: in vivo, Sprague–Dawley rat; details: SC injection 20 mg/kg once a day P15–P19, histology P20
Text: Oxygen-induced retinopathy rat models were produced according to the protocols of Yanni et al. (2010). Sprague–Dawley rat babies (and their nursing mothers) were exposed to a cycling oxygen environment (80% and 21%, about one day for each) for 15 days after starting from the day of birth (Day 0). On Day 15 (P15), the animals were moved to room air. […] On P20, all of the animals were euthanized by CO2 gas, and the retina was visualized as histology sections.

[10] = Mouse sub-retina/sclera complex pharmacokinetics after SC injection; type: in vivo, C57BL/6J mice; details: single SC injection 0.7 mg/kg
Procedure: This effective dosage and administration route was evaluated in dose escalation studies by using the mouse laser-induced CNV model. The AUC reflects the exposure to the drug after administration of a dose of the drug and is expressed in hour · ng/mg tissue. The AUC is dependent on the dose administered as well as the rate of elimination of the drug from the tissue. The AUC is directly proportional to the dose when the drug follows linear kinetics, and AUC is inversely proportional to the clearance of the drug. In 1 h, 3 h, 6 h, and 18 h after the SC injection, eyeballs were extracted. Tissue from the retina, the sclera, and the sub-retina complex were isolated and extracted. These tissues were immediately frozen in liquid nitrogen. The tissue was subjected to LC/MS analysis for quantitation. The detection limit was 0.25 ng/g tissue.

[11] = parameters: method as in earlier work; details: cited from earlier work
[12] = Rat retina pharmacokinetics, single topical 0.25% rifampicin eye drop; type: in vivo, Sprague–Dawley rats; details: male, Sprague-Dawley, topical or ocular, 15 μL of 0.25% rifampicin eye drop
Procedure: At time points of 1 h, 3 h, and 7 h after the application of the eye drops, euthanasia was performed using CO2 gas, and the retinal tissues were excised from the rats under a dissection microscope. In addition, “non-treated” negative controls were used, and the retina was excised from one rat without performing any treatments on the rat. The retina was placed in a 1.5-mL microcentrifuge tube (1 retina/tube) and was fully washed with DPBS. After completion of the washing procedures, the retinal tissues in the microcentrifuge tube were frozen in dry ice and then preserved for quantification by LC/MS analysis.

[13] = Rabbit, average of n = 6; 0.5% 50 μL, 250 μg; cited from earlier work

Row | SMILES | Inhibition of neovascularization in CNV model ([1]; SC injection 0.7 mg/kg once daily, 7 days after laser) | Neovascularization inhibition level compared with intravitreal aflibercept ([1]; SC injections at doses exceeding 0.7 mg/kg) | Minimum effective dose for inhibiting neovascularization in subretinal tissues ([1]; SC, dose escalation studies) [mg/kg] | Effective dosage in CNV model, times less than that of bacterial inhibition ([1]; vs 20 mg/kg effective systemic dosage for bacterial infection) | Share of rifampicin in sub-retina and sclera complex delivered to the sub-retina [2] | Effect on CSC ([3]; 600 mg daily oral dose) | Effect on visual acuity and macular thickness in CSC ([3]; daily oral dosage of 300 mg) | Toxicity on repeated topical application [4] | Concentration required for statistically significant inhibition of HUVEC tube formation and proliferation [5] | Patients with hepatotoxicity [6] | Drug Amount Detected in Retina ([7]; topical 0.25% 3 drops (15 μL, 37.5 μg)) | Drug Amount Detected in Retina ([7]; topical 0.25% 10 drops (50 μL, 125 μg)) | Estimated serum concentration corresponding to peak plasma exposure [8] [µM] | Number of new capillaries on the retinal surface vs vehicle control [9] | Peak concentration in mouse sub-retinal and scleral complex [10] | Peak concentration in mouse sub-retinal and scleral complex, calculated molar [10] | Peak plasma exposure ([11]; 600 mg intravenous dose) [µg/mL] | Peak plasma exposure ([11]; 600 mg oral dose) [µg/mL] | Tmax [12] [h] | Drug Amount Detected in Retina [13]
1 | CO[C@H]1/C=C/O[C@@]2(C)Oc3c(C)c(O)c4c(O)c(c(/C=N/N5CCN(C)CC5)c(O)c4c3C2=O)NC(=O)/C(C)=C\C=C\[C@H](C)[C@H](O)[C@@H](C)[C@@H](O)[C@@H](C)[C@H](OC(C)=O)[C@@H]1C [Rifampicin] | significantly inhibited neovascularization | equivalent to that achieved with intravitreal injection of aflibercept | 0.7 | approximately 30 times | approximately 70% | improvements in CSC | improved visual acuity and macular thickness | no toxicity | approximately 30 µM | up to 28% | 1280 ng/ 1 g of retinal tissues (Rat) SE: 394.0348 | 2939 ng/ 1 g of retinal tissues (Rat) SE: 50.54 | 12 to 23 | fewer than that in the control group | approximately 0.03 ng/mg tissue weight | roughly 0.04 µM | 9 to 17 | 4 to 32 | ~1 | 
2 | C[C@@H]1C[C@H]2[C@@H]3CCC4=CC(=O)C=C[C@]4(C)[C@@]3(F)[C@@H](O)C[C@]2(C)[C@@]1(O)C(=O)CO [Dexamethasone] |  |  |  |  |  |  |  |  |  |  |  |  |  |  |  |  |  |  |  | 33 ng/ 1 g of retinal tissues (Rabbit, average of n = 6)
